{
  "source": "patent US12628825B2",
  "about": "“Methods of controlling or preventing infestation of plants by plant-parasitic nematodes of the genus Aphelenchoides spp., especially Aphelenchoides besseyi” (SYNGENTA CROP PROTECTION AG, priority 2020, dated 2026)",
  "tested_on": "Aphelenchoides besseyi",
  "assay": "Soybean pot trial in the greenhouse, seed treatment, nematode control",
  "format": "in vivo",
  "settings": "28-day after inoculation assessment",
  "description": "A soybean pot trial was carried out in the greenhouse of Holambra Field Station, state of Sao Paulo, Brazil, to evaluate the efficacy of nematicidal treatments against Aphelenchoides besseyi.\nThe seeds of the susceptible soybean variety Nidera 6828 IPRO were treated (seed treatment) at the field station with the use of a slurry (spray solution) of 0.6 liter per 100 kg of seeds of soybean. The treated seeds (treatments 3-10) were then compared with the untreated checks.\nTwo seeds were sowed in 1-liter pots with the Holambra Mix (25% of Holambra station soil and 75% pasteurized sand). […] The inoculation of each plant with the nematode was performed at 8 days after emergence (at the crop stage V1) by using a pipet with 1000 juveniles of Aphelenchoides per plant, directed to the base of the plant. Each plot of the trial was 1 pot containing 1 infested plant of soybean. A total of 6 replicates per treatment was used. The plants were grown in separated plastic chambers (to avoid contamination of plots) inside a greenhouse that averaged 30° C. in the day and 20° C. in the night. Plants were watered many times per day (for keeping a favourable environment for the growth of nematode population and migration to the aerial part of plants) by an automatic sprinkler system. […]",
  "data": [
    {"smiles": "O=C(N[C@@H]1CC[C@@H]1c1ccc(Cl)cc1Cl)c1cccnc1C(F)(F)F", "note": "(racemic) [cyclobutrifluram]", "values": [
      {"measurement": "comparison to Avicta 500FS and Ilevo 600FS", "setting": "even at the lowest rate tested of 5 g AI per 100 kg of seeds", "result": "statistically superior"},
      {"measurement": "activity against Aphelenchoides besseyi which attacked soybean", "setting": "seed treatment", "result": "excellent activity"}
    ]}
  ]
}
